Source: publication PMC10794144, “A novel antibiotic class targeting the lipopolysaccharide transporter” (Nature, 2024)
In brackets after ≈: the same amount, converted by molar mass. Where two headings read alike, the source gives them in different places.

Experiments:
[1] = system: K. pneumoniae ATCC 700603; test: microbe, parasite or virus in culture; details: for MIC: Klebsiella pneumoniae
Summary of the method: (§1)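 Broth microdilution following CLSI M07 and M100. Inocula were diluted from a 0.5 McFarland suspension in CAMHB. MIC is the lowest compound concentration inhibiting visible growth, or beyond which OD600 ceased to decrease.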

[2] = system: P. aeruginosa ATCC 27853; test: microbe, parasite or virus in culture; details: Pseudomonas aeruginosa
Summary of the method: as §1

[3] = target: T1, Cyclooxygenase 2 (Homo sapiens, UniProt P35354); test: Off-target screening (CEREP); type: biochemical; details: 10 µM, duplicates; read-out: percent inhibition
T1 construct: purchased Eurofins CEREP SA
T1 sequence (P35354 18-604): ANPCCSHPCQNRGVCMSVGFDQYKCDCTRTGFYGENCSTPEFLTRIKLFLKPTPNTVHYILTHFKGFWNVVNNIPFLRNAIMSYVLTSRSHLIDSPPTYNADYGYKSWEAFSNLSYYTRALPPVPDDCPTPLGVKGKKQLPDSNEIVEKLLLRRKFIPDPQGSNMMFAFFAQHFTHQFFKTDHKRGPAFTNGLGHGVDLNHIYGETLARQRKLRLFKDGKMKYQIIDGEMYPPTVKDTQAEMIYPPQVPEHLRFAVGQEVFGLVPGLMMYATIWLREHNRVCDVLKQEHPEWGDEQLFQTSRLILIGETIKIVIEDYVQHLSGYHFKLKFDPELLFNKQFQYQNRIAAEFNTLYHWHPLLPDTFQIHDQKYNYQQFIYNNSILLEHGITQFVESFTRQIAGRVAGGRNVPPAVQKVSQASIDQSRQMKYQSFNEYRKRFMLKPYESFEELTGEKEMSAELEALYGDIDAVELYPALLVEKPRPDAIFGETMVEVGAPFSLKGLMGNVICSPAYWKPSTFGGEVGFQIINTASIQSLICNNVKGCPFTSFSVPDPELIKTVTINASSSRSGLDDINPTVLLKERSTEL
Protocol: (§2) Supplementary Table 1 │ Off-target activity screening f or MCP compou nds […]
(§3) The assays given in the table above were conducted at Eurofins CEREP S A (Celle-Lévescault, France) and were run as single point measurements in duplicates in the presence of 10 µ M of the test compound and reported as percent inhibition of the radioligand signal or control enzymatic activity. n.d., not

[4] = target: T2, CDK2 (Homo sapiens, UniProt P24941); test: Off-target screening (CEREP); type: biochemical; details: 10 µM, duplicates; read-out: percent inhibition
T2 construct: purchased Eurofins CEREP SA
Protocol: as §2, §3

[5] = target: T3, Angiotensin converting enzyme (Homo sapiens, UniProt P12821); test: Off-target screening (CEREP); type: biochemical; details: 10 µM, duplicates; read-out: percent inhibition
T3 construct: purchased Eurofins CEREP SA
Protocol: as §2, §3

[6] = target: T4, Monoamine oxidase-A (Homo sapiens, UniProt P21397); test: Off-target screening (CEREP); type: biochemical; details: 10 µM, duplicates; read-out: percent inhibition
T4 construct: purchased Eurofins CEREP SA
T4 sequence (P21397 1-527): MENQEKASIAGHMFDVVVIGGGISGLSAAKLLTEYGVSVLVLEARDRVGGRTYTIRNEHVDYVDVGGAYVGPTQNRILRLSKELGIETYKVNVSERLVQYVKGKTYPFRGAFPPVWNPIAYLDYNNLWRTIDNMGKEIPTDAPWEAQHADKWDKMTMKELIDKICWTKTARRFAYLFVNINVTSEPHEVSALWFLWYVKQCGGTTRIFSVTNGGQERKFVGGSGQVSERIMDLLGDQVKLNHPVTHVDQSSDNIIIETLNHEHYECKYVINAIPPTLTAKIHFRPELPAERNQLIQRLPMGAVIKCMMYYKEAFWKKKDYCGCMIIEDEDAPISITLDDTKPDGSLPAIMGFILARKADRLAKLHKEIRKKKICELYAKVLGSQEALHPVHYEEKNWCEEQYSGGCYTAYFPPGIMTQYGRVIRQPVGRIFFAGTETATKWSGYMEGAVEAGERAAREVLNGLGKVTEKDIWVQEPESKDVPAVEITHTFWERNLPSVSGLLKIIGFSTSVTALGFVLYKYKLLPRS
Protocol: as §2, §3

[7] = target: T5, GSK-3A (Homo sapiens, UniProt P49840); test: Off-target screening (CEREP); type: biochemical; details: 10 µM, duplicates; read-out: percent inhibition
T5 construct: purchased Eurofins CEREP SA
Protocol: as §2, §3

[8] = target: T6, Matrix metalloprotease-9 (Homo sapiens, UniProt P14780); test: Off-target screening (CEREP); type: biochemical; details: 10 µM, duplicates; read-out: percent inhibition
T6 construct: purchased Eurofins CEREP SA
Protocol: as §2, §3

[9] = target: T7, Phosphodiesterase 3B (Homo sapiens, UniProt Q13370); test: Off-target screening (CEREP); type: biochemical; details: 10 µM, duplicates; read-out: percent inhibition
T7 construct: purchased Eurofins CEREP SA
Protocol: as §2, §3

[10] = target: T8, Acetylcholinesterase (Homo sapiens, UniProt P22303); test: Off-target screening (CEREP); type: biochemical; details: 10 µM, duplicates; read-out: percent inhibition
T8 construct: purchased Eurofins CEREP SA
Protocol: as §2, §3

[11] = ATCC700603, CAMHB, mode of at least three replicates (RO7036668 one replicate)
[12] = ATCC27853, CAMHB, mode of at least three replicates (RO7036668 one replicate)

T5 sequence (P49840 whole entry): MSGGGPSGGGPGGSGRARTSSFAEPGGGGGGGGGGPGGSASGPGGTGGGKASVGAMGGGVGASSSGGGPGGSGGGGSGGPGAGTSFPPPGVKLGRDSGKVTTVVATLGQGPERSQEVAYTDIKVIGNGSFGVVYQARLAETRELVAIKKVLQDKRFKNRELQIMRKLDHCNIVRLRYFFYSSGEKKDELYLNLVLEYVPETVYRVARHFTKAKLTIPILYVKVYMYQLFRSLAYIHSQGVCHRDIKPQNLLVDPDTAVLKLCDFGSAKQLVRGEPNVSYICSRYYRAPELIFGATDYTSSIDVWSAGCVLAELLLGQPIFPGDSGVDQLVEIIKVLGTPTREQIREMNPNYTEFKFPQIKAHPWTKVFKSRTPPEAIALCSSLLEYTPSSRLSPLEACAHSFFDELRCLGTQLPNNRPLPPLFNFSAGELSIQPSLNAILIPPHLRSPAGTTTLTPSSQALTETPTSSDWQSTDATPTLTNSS
T8 sequence (P22303 32-614): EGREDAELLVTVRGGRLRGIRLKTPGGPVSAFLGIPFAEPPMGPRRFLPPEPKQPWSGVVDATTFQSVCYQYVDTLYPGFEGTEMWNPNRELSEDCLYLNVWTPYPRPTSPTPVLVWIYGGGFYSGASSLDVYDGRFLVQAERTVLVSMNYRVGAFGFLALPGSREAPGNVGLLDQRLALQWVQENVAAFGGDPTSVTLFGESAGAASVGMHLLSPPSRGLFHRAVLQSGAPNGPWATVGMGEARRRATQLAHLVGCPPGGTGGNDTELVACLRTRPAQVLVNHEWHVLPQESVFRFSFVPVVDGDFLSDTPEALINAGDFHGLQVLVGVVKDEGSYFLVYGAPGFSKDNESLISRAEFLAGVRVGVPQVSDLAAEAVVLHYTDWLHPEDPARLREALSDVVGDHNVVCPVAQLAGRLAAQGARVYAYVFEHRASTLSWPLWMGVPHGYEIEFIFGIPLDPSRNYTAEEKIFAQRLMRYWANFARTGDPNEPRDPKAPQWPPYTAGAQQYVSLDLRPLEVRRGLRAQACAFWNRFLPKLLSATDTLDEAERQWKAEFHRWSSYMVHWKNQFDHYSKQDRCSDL
T7 sequence (Q13370 whole entry): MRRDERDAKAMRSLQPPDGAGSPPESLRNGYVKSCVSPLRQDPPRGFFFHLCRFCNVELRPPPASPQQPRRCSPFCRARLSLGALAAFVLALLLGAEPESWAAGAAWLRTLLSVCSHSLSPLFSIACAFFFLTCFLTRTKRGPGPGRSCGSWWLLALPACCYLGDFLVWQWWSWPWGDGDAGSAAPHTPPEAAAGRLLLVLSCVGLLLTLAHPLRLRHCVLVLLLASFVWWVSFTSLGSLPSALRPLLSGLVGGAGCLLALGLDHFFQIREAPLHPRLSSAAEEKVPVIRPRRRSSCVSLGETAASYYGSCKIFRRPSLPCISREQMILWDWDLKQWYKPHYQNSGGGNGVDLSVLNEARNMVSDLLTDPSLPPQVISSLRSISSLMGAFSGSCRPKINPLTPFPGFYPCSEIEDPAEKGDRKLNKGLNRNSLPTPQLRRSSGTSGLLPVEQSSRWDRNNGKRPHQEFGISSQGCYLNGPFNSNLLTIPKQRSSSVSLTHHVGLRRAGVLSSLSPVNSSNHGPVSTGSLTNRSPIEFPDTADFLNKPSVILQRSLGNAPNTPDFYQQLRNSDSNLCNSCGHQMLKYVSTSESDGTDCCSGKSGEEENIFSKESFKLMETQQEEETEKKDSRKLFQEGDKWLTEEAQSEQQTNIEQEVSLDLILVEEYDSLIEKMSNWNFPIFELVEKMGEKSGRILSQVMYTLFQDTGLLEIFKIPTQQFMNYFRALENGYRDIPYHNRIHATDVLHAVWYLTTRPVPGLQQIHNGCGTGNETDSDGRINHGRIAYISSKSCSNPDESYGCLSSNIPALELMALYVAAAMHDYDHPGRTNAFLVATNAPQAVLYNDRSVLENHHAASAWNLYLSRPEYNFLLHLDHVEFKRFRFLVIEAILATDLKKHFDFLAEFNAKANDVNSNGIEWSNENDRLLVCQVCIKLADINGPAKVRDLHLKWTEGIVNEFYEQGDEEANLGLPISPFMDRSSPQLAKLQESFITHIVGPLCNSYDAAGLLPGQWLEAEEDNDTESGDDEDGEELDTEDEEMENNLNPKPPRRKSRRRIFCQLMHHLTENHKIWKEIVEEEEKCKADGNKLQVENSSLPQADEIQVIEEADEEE
T6 sequence (P14780 94-707): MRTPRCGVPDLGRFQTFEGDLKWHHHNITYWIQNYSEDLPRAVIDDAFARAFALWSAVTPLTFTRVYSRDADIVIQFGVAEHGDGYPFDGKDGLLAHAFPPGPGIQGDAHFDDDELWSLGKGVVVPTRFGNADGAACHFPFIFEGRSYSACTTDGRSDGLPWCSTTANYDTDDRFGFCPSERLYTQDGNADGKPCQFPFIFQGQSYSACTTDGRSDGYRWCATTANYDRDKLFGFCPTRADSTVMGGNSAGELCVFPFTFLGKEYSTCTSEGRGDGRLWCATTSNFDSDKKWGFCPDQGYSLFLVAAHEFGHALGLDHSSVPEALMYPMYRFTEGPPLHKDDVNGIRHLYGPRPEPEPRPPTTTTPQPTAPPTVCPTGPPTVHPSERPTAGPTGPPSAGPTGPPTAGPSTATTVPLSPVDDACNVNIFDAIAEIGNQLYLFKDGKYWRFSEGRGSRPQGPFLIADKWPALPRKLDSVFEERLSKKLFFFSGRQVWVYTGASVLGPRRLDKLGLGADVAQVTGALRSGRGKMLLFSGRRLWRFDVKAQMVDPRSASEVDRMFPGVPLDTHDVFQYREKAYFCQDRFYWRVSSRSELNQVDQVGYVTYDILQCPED
T3 sequence (P12821 30-1306): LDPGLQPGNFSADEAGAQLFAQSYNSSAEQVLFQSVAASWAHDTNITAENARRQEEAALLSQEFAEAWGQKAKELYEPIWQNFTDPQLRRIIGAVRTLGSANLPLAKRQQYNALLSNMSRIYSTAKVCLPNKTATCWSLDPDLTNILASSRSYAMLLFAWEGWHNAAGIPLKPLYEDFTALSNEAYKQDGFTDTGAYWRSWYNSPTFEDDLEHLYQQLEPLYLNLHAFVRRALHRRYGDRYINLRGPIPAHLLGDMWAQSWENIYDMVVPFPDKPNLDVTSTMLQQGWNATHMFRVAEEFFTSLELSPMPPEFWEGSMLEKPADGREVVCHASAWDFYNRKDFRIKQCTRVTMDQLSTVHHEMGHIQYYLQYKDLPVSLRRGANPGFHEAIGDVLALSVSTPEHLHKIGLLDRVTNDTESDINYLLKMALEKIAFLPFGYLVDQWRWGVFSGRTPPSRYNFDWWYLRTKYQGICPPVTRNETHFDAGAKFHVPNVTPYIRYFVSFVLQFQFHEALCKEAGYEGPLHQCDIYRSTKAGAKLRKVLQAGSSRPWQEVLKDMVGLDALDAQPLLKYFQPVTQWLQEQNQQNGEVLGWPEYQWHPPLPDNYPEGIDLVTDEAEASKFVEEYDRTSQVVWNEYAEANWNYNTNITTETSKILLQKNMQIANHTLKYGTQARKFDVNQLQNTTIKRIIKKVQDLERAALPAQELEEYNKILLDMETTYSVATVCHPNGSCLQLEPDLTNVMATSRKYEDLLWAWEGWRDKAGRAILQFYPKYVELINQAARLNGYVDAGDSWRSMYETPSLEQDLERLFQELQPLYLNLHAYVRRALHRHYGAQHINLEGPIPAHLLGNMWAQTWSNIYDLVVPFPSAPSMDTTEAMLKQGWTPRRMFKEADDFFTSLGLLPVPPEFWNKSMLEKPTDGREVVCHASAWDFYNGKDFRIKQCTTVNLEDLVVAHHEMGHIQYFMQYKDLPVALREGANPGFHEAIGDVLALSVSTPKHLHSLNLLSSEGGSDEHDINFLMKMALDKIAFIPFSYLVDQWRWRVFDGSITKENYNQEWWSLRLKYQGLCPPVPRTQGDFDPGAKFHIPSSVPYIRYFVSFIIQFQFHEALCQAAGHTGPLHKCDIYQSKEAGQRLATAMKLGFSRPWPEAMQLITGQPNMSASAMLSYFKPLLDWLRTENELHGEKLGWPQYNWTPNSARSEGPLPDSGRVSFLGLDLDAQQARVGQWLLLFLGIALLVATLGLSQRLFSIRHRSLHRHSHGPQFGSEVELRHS

`C[C@@H](O)[C@H]1C(=O)N2C(C(=O)O)=C(S[C@@H]3CN[C@H](C(=O)N(C)C)C3)[C@H](C)[C@H]12` [meropenem, reference compound] was tested, and the MIC [1, 11] was ≤ 0.06 mg/L, the MIC ([1]; ATCC700603, read-out: MIC 100%, Study LGC277937, 100%) was ≤ 0.06 mg/L and the MIC ([1]; ATCC700603, read-out: MIC 100%, Study LGC279800, 100%) was ≤ 0.06 mg/L. The MIC ([1]; ATCC700603, read-out: MIC 100%, Study LGC281440, 100%) was ≤ 0.06 mg/L, the MIC ([1]; ATCC700603, read-out: MIC 100%, Study LGC282160, 100%) was ≤ 0.06 mg/L and the MIC ([1]; ATCC700603, read-out: MIC 100%, Study LGC282623, 100%) was ≤ 0.06 mg/L. The MIC ([1]; ATCC700603, read-out: MIC 100%, Study LGC283932, 100%) was ≤ 0.06 mg/L, the MIC ([1]; ATCC700603, read-out: MIC 100%, Study LGC284200, 100%) was ≤ 0.06 mg/L and the MIC ([1]; ATCC700603, read-out: MIC 100%, Study LGC284879, 100%) was ≤ 0.06 mg/L. For the same compound, the MIC ([1]; ATCC700603, read-out: MIC 100%, Study LGC285582, 100%) was ≤ 0.06 mg/L, the MIC ([1]; ATCC700603, read-out: MIC 100%, Study LGC286210, 100%) was ≤ 0.06 mg/L and the MIC ([1]; ATCC700603, read-out: MIC 100%, Study LGC293598, 100%) was ≤ 0.06 mg/L. The MIC ([1]; ATCC700603, read-out: MIC 100%, Study LGC294355, 100%) was ≤ 0.06 mg/L, the MIC ([1]; ATCC700603, read-out: MIC 100%, Study LGC295147, 100%) was ≤ 0.06 mg/L and the MIC ([1]; ATCC700603, read-out: MIC 100%, Study LGC296813, 100%) was ≤ 0.06 mg/L. The MIC ([1]; ATCC700603, read-out: MIC 100%, Study LGC299544, 100%) was ≤ 0.06 mg/L, the MIC ([1]; ATCC700603, read-out: MIC 100%, Study LGC301026, 100%) was ≤ 0.06 mg/L and the MIC ([1]; ATCC700603, read-out: MIC 100%, Study LGC308175, 100%) was ≤ 0.06 mg/L. For the same compound, the MIC ([1]; ATCC700603, read-out: MIC 100%, Study ROC003, 100%) was ≤ 0.06 mg/L, the MIC ([1]; ATCC700603, read-out: MIC 100%, Study ROC004, 100%) was ≤ 0.06 mg/L and the MIC ([1]; ATCC700603, read-out: MIC 100%, Study ROC005, 100%) was ≤ 0.06 mg/L. For the same compound, the MIC ([1]; ATCC700603, read-out: MIC 100%, Study ROC006, 100%) was ≤ 0.06 mg/L, the MIC ([1]; ATCC700603, read-out: MIC 100%, Study ROC007, 100%) was ≤ 0.06 mg/L and the MIC ([1]; ATCC700603, read-out: MIC 100%, Study ROC008, 100%) was 0.12 mg/L (≈ 0.313 µM). The MIC ([1]; ATCC700603, read-out: MIC 100%, Study ROC009, 100%) was 0.06 mg/L (≈ 0.156 µM), the MIC ([1]; ATCC700603, read-out: MIC 100%, Study ROC010, 100%) was ≤ 0.06 mg/L and the MIC ([1]; ATCC700603, read-out: MIC 100%, Study ROC012, 100%) was ≤ 0.06 mg/L. For the same compound, the MIC ([1]; ATCC700603, read-out: MIC 100%, Study ROC013, 100%) was ≤ 0.06 mg/L, the MIC [2, 12] was 0.5 mg/L (≈ 1.3 µM) and the MIC ([2]; ATCC27853, read-out: MIC 100%, Study LGC277937, 100%) was 0.5 mg/L (≈ 1.3 µM). For the same compound, the MIC ([2]; ATCC27853, read-out: MIC 100%, Study LGC279800, 100%) was 0.25 mg/L (≈ 0.652 µM), the MIC ([2]; ATCC27853, read-out: MIC 100%, Study LGC281440, 100%) was 0.25 mg/L (≈ 0.652 µM) and the MIC ([2]; ATCC27853, read-out: MIC 100%, Study LGC282160, 100%) was 0.5 mg/L (≈ 1.3 µM). For the same compound, the MIC ([2]; ATCC27853, read-out: MIC 100%, Study LGC282623, 100%) was 0.5 mg/L (≈ 1.3 µM), the MIC ([2]; ATCC27853, read-out: MIC 100%, Study LGC283932, 100%) was 0.5 mg/L (≈ 1.3 µM) and the MIC ([2]; ATCC27853, read-out: MIC 100%, Study LGC284200, 100%) was 0.5 mg/L (≈ 1.3 µM). The MIC ([2]; ATCC27853, read-out: MIC 100%, Study LGC284879, 100%) was 0.5 mg/L (≈ 1.3 µM), the MIC ([2]; ATCC27853, read-out: MIC 100%, Study LGC285582, 100%) was 0.25 mg/L (≈ 0.652 µM) and the MIC ([2]; ATCC27853, read-out: MIC 100%, Study LGC286210, 100%) was 0.5 mg/L (≈ 1.3 µM). For the same compound, the MIC ([2]; ATCC27853, read-out: MIC 100%, Study LGC293598, 100%) was 0.5 mg/L (≈ 1.3 µM), the MIC ([2]; ATCC27853, read-out: MIC 100%, Study LGC294355, 100%) was 0.5 mg/L (≈ 1.3 µM) and the MIC ([2]; ATCC27853, read-out: MIC 100%, Study LGC295147, 100%) was 0.5 mg/L (≈ 1.3 µM). For the same compound, the MIC ([2]; ATCC27853, read-out: MIC 100%, Study LGC296813, 100%) was 0.5 mg/L (≈ 1.3 µM), the MIC ([2]; ATCC27853, read-out: MIC 100%, Study LGC299544, 100%) was 0.5 mg/L (≈ 1.3 µM) and the MIC ([2]; ATCC27853, read-out: MIC 100%, Study LGC301026, 100%) was 0.25 mg/L (≈ 0.652 µM). For the same compound, the MIC ([2]; ATCC27853, read-out: MIC 100%, Study LGC308175, 100%) was 0.25 mg/L (≈ 0.652 µM), the MIC ([2]; ATCC27853, read-out: MIC 100%, Study ROC003, 100%) was 0.5 mg/L (≈ 1.3 µM) and the MIC ([2]; ATCC27853, read-out: MIC 100%, Study ROC004, 100%) was 0.5 mg/L (≈ 1.3 µM). It also gave an MIC ([2]; ATCC27853, read-out: MIC 100%, Study ROC005, 100%) of 0.5 mg/L (≈ 1.3 µM), an MIC ([2]; ATCC27853, read-out: MIC 100%, Study ROC006, 100%) of 0.5 mg/L (≈ 1.3 µM) and an MIC ([2]; ATCC27853, read-out: MIC 100%, Study ROC007, 100%) of 0.5 mg/L (≈ 1.3 µM). The MIC ([2]; ATCC27853, read-out: MIC 100%, Study ROC008, 100%) was 2 mg/L (≈ 5.22 µM), the MIC ([2]; ATCC27853, read-out: MIC 100%, Study ROC009, 100%) was 0.25 mg/L (≈ 0.652 µM) and the MIC ([2]; ATCC27853, read-out: MIC 100%, Study ROC010, 100%) was 0.5 mg/L (≈ 1.3 µM). It also gave an MIC ([2]; ATCC27853, read-out: MIC 100%, Study ROC012, 100%) of 0.12 mg/L (≈ 0.313 µM) and an MIC ([2]; ATCC27853, read-out: MIC 100%, Study ROC013, 100%) of 0.5 mg/L (≈ 1.3 µM).
`CN1C(=O)[C@H](CCCN)NC(=O)[C@H](CCCN)NCc2ccccc2Sc2ccccc2CNC(=O)[C@@H]1Cc1c[nH]c2ccccc12` [RO7036668] was tested, and the MIC [1, 11] was > 64 mg/L, the “MIC 100%” value ([1]; Study ROC004, 100%) was >64 mg/L and the MIC [2, 12] was > 64 mg/L. It also gave an inhibition at 10 µM [3] of 4%, an inhibition at 10 µM [4] of 9% and an inhibition at 10 µM [5] of -7%. For the same compound, the inhibition at 10 µM [6] was -2%, the inhibition at 10 µM [7] was -12% and the inhibition at 10 µM [8] was 6%. The inhibition at 10 µM [9] was 17% and the inhibition at 10 µM [10] was 9%.
